Test results: US11779567B2, “Method for optimizing 5-hydroxytryptamine function in the brain for therapeutic purposes” (Evecxia Therapeutics, Inc., priority 2021, dated 2023)
Several values for one entry are separate records, joined by “and”; a condition that tells them apart may be missing. Equal values may be shown once. Read-outs that look alike come from different tables or passages of the source.

Experiments:
plasma cortisol = assay: Pharmacodynamics: acute increase in plasma cortisol; type: in vivo, human
Source text: Background: Compounds that acutely elevate brain 5-HTExt can activate the hypothalamic pituitary adrenal axis and induce the release of cortisol from the adrenals into the plasma (Attenburrow et al, 2001; Demisch et al, 1986; Guan et al, 2020; Kapitany et al, 1999; Lowe et al, 2006; Meltzer et al, 1983; Sargent et al, 1998). Generally large, acute increases in brain 5-HTExt are required to increase cortisol and the effect desensitizes rapidly with prolonged serotonin elevation (Mashchak et al, 1983).
Method: Total plasma cortisol levels (expressed in μg/dL) were quantified using standard immunoassay methodology. Total plasma cortisol levels were measured at multiple time points during the 24 hr infusion period of 5-HTP solution for IV infusion or placebo. Total plasma cortisol levels were measured at baseline (T=0) before the start of infusion. Blood samples were collected at T=0, and at pre-specified timepoints following initiation of infusion (2, 4, 6, 8, 10, 12, 14, 22, 24 hr). The pharmacodynamic population included subjects who received IV 5-HTP and completed the 24 h infusion or placebo and who had escitalopram levels above the lower limit of quantitation.
Statistics: Changes from baseline value were calculated for each time point using descriptive statistics (n, arithmetic mean, SD, CV). A comparison between active treatment and placebo was made for each time point and cohort using ANOVA with Dunnett's post-hoc correction of the p-value to account for multiple testing. Significance was set at p<0.05. Statistical analysis was executed using SAS software Version 9.4,

[1] = Plasma 5-HTP pharmacokinetics of 24 h continuous IV 5-HTP infusion, Phase 1 study; type: in vivo, human
Description: Study Design. A Phase 1, randomized, double-blind, placebo-controlled, single ascending dose study was performed to evaluate the safety, tolerability and pharmacokinetics (PK) of 5-HTP solution for IV infusion when administered to healthy adults taking a selective serotonin reuptake inhibitor (SSRI), escitalopram, for 3 weeks. Study duration was 37±3 days. The total individual subject participation time was no more than 66 days including screening, dosing, and follow-up phases. The IV infusion duration was 24 h, dosing with 5-HTP solution for IV infusion (see Example 3, above) or placebo (0.9% saline).
Subjects. A total of 39 healthy male and female subjects were randomized across 5 cohorts, each with 8 subjects (6 active:2 placebo) per cohort except for Cohort 5 (5 active:2 placebo). For each cohort, first 2 sentinel subjects received IV 5-HTP (N=1) or placebo (N=1) prior to dosing of the remaining 5 or 6 subjects.
IV infusion. 5-HTP solution for IV infusion or placebo was administered IV at a constant rate or ramped rate of infusion over 24 hr.
Constant rate infusion. 5-HTP solution for IV infusion was administered at constant infusion rates of 1 mg/kg/24 hr in Cohort 1 and 3 mg/kg/24 hr in Cohort 2. The infusion rate was 41.67 ml/h.
Ramp rate infusion. To gradually elevate 5-HTP plasma levels, 5-HTP solution for IV infusion was administered at a ramp rate of infusion for Cohorts 3, Cohort 4, and Cohort 5, at average 5-HTP infusion rates of 3 mg/kg/24 hr, 2 mg/kg/24 hr and 1 mg/kg/24 hr, respectively. The infusion volume rates were 13.89 ml/hr at T=0-4 hr; 27.78 ml/hr at T=4-8 hr; 41.67 ml/hr at T=8-12 hr; and 55.55 ml/hr at T=12-24 hr.
Bioanalysis. Plasma samples for 5-HTP analysis were collected and stored at −80° C. Plasma samples for escitalopram analysis were collected and stored at −80° C. Plasma 5-HTP levels and plasma escitalopram levels were measured using standard liquid chromatography with tandem mass spectrometry (LC-MS-MS) methods. For 5-HTP analysis, plasma samples were collected at T=0, 1, 2, 3, 4, 5, 6, 8, 10, 12, 14, 22, 24, 26, 28, 30, 32, 36, and 48 hr. For escitalopram analysis, plasma samples were collected on Day 7, Day 21 (pre-infusion), Day 22 (end of infusion), and Day 23 (24 hr after end of infusion). Plasma escitalopram levels were averaged across days 21-23, during the time-period when subjects were admitted to the clinic and received 5-HTP solution for IV infusion or placebo.
Statistical analysis. Subjects receiving placebo across the 5 cohorts (N=2 per cohort) were pooled. Descriptive statistics were calculated for each quantitative variable within each treatment group and placebo (n, mean, standard deviation, median, minimum, maximum).
PK analysis of plasma 5-HTP. The PK population included subjects who received 5-HTP solution for IV infusion and completed the 24 h infusion. PK parameters were computed for each Cohort/dose/infusion paradigm. Placebo data from all cohorts were pooled.

[2] = both sexes, human, plasma, intravenous, 1 mg/kg, individual subjects, Constant rate 1 mg/kg/24 hr
[3] = both sexes, human, plasma, intravenous, 1 mg/kg, individual subjects, Ramp rate 1 mg/kg/24 hr
[4] = both sexes, human, plasma, intravenous, 2 mg/kg, individual subjects, Ramp rate 2 mg/kg/24 hr
[5] = both sexes, human, plasma, intravenous, 3 mg/kg, individual subjects, Constant rate 3 mg/kg/24 hr
[6] = both sexes, human, plasma, intravenous, 3 mg/kg, individual subjects, Ramp rate 3 mg/kg/24 hr
[7] = both sexes, human, plasma, iv, 1 mg/kg, Cohort 1, constant rate 1 mg/kg/24 hr IV, healthy adults on escitalopram, mean, N=6
[8] = both sexes, human, plasma, iv, 1 mg/kg, Cohort 5, ramp rate 1 mg/kg/24 hr IV, healthy adults on escitalopram, mean, N=5
[9] = both sexes, human, plasma, iv, 2 mg/kg, Cohort 4, ramp rate 2 mg/kg/24 hr IV, healthy adults on escitalopram, mean, N=6
[10] = both sexes, human, plasma, iv, 3 mg/kg, Cohort 2, constant rate 3 mg/kg/24 hr IV, healthy adults on escitalopram, mean, N=4 completers
[11] = both sexes, human, plasma, iv, 3 mg/kg, Cohort 3, ramp rate 3 mg/kg/24 hr IV, healthy adults on escitalopram, mean, N=6
[12] = individual subjects, Constant rate 1 mg/kg/24 hr
[13] = individual subjects, Constant rate 3 mg/kg/24 hr
[14] = individual subjects, Ramp rate 1 mg/kg/24 hr
[15] = individual subjects, Ramp rate 2 mg/kg/24 hr
[16] = individual subjects, Ramp rate 3 mg/kg/24 hr

N[C@@H](Cc1c[nH]c2ccc(O)cc12)C(=O)O [5-HTP, 5-hydroxytryptophan]
plasma cortisol levels relative to placebo (plasma cortisol; constant flow rate 1 mg/kg/24 hr, 2 hr after start of infusion, p<0.01): significantly higher
plasma cortisol levels relative to placebo (plasma cortisol; constant flow rate 3 mg/kg/24 hr, 2 hr after start of infusion, p<0.005): significantly higher
plasma cortisol levels relative to placebo (plasma cortisol; constant flow rate 3 mg/kg/24 hr, throughout the 24 hr infusion, except at the 24 hr time point): remained significantly higher
increase of plasma cortisol levels relative to placebo (plasma cortisol; ramp flow rate 1 mg/kg/24 hr, 14 hr, trend, p=0.0751): not statistically significant
plasma cortisol levels relative to placebo (plasma cortisol; ramp flow rate 2 mg/kg/24 hr, 14 hr after start of infusion, p<0.05): significantly higher
plasma cortisol levels relative to placebo (plasma cortisol; ramp flow rate 3 mg/kg/24 hr, 14 hr after start of infusion, p<0.0001): significantly higher
differences in CAve, AUCInf or AUCLast between constant rate and ramp rate infusion ([1]; 1 mg/kg/24 hr or 3 mg/kg/24 hr average infusion rates, p>0.05, unpaired t-test): no significant differences
CAve (0-24 h) ([1]; Cohort 1, constant rate 1 mg/kg/24 hr IV, healthy adults on escitalopram, mean, N=6): 94 ng/mL
initial 5-HTP plasma levels, T=1 h ([1]; Cohort 2, constant 3 mg/kg/24 hr, the 2 discontinued subjects): 304 ng/mL
CAve (0-24 h) ([1]; Cohort 2, constant rate 3 mg/kg/24 hr IV, healthy adults on escitalopram, mean, N=4 completers): 268 ng/mL
CAve (0-24 h) ([1]; Cohort 4, ramp rate 2 mg/kg/24 hr IV, healthy adults on escitalopram, mean, N=6): 160 ng/mL
CAve (0-24 h) ([1]; Cohort 5, ramp rate 1 mg/kg/24 hr IV, healthy adults on escitalopram, mean, N=5): 82 ng/mL
AUC(0-inf) [1, 2]: 2920 ng·h/mL
AUC(0-t) [1, 2]: 2830 ng·h/mL
CMax ([1]; both sexes, human, plasma, intravenous, 1 mg/kg, individual subjects, Constant rate 1 mg/kg/24 hr, read-out: CMax): 118 ng/mL
AUC(0-inf) [1, 3]: 2810 ng·h/mL
AUC(0-t) [1, 3]: 2770 ng·h/mL
CMax ([1]; both sexes, human, plasma, intravenous, 1 mg/kg, individual subjects, Ramp rate 1 mg/kg/24 hr, read-out: CMax): 179 ng/mL
AUC(0-inf) [1, 4]: 6650 ng·h/mL
AUC(0-t) [1, 4]: 6540 ng·h/mL
CMax ([1]; both sexes, human, plasma, intravenous, 2 mg/kg, individual subjects, Ramp rate 2 mg/kg/24 hr, read-out: CMax): 407 ng/mL
AUC(0-inf) [1, 5]: 8000 ng·h/mL
AUC(0-t) [1, 5]: 7960 ng·h/mL
CMax ([1]; both sexes, human, plasma, intravenous, 3 mg/kg, individual subjects, Constant rate 3 mg/kg/24 hr, read-out: CMax): 397 ng/mL
AUC(0-inf) [1, 6]: 11200 ng·h/mL
AUC(0-t) [1, 6]: 11100 ng·h/mL
CMax ([1]; both sexes, human, plasma, intravenous, 3 mg/kg, individual subjects, Ramp rate 3 mg/kg/24 hr, read-out: CMax): 613 ng/mL
AUC(0-inf) [1, 7]: 2970 ng·h/mL
AUC(0-t) [1, 7]: 2910 ng·h/mL
half-life [1, 7]: 3.71 h
CMax ([1]; both sexes, human, plasma, iv, 1 mg/kg, Cohort 1, constant rate 1 mg/kg/24 hr IV, healthy adults on escitalopram, mean, N=6, read-out: CMax): 141 ng/mL
AUC(0-inf) [1, 8]: 3290 ng·h/mL
AUC(0-t) [1, 8]: 3240 ng·h/mL
half-life [1, 8]: 4.52 h
CMax ([1]; both sexes, human, plasma, iv, 1 mg/kg, Cohort 5, ramp rate 1 mg/kg/24 hr IV, healthy adults on escitalopram, mean, N=5, read-out: CMax): 209 ng/mL
AUC(0-inf) [1, 9]: 6440 ng·h/mL
AUC(0-t) [1, 9]: 6330 ng·h/mL
half-life [1, 9]: 4.4 h
CMax ([1]; both sexes, human, plasma, iv, 2 mg/kg, Cohort 4, ramp rate 2 mg/kg/24 hr IV, healthy adults on escitalopram, mean, N=6, read-out: CMax): 395 ng/mL
AUC(0-inf) [1, 10]: 8850 ng·h/mL
AUC(0-t) [1, 10]: 8800 ng·h/mL
half-life [1, 10]: 4.84 h
CMax ([1]; both sexes, human, plasma, iv, 3 mg/kg, Cohort 2, constant rate 3 mg/kg/24 hr IV, healthy adults on escitalopram, mean, N=4 completers, read-out: CMax): 427 ng/mL
AUC(0-inf) [1, 11]: 11000 ng·h/mL
AUC(0-t) [1, 11]: 10900 ng·h/mL
half-life [1, 11]: 5.1 h
CMax ([1]; both sexes, human, plasma, iv, 3 mg/kg, Cohort 3, ramp rate 3 mg/kg/24 hr IV, healthy adults on escitalopram, mean, N=6, read-out: CMax): ~592 ng/mL
time to average steady state plasma levels after start of infusion ([1]; constant 5-HTP infusion rates 1 mg/kg/24 hr and 3 mg/kg/24 hr): approximately 4 h
concentration at 1 h ([1]; human, plasma, intravenous, 3 mg/kg/24 hr, Cohort 2, constant 3 mg/kg/24 hr, the 2 discontinued subjects, read-out: initial 5-HTP plasma levels, T=1 h): 248 ng/mL
AUCInf [1, 12]: 2551.36 ng·h/mL and 2930.09 ng·h/mL and 3832.68 ng·h/mL and 2234.41 ng·h/mL and 3351.07 ng·h/mL
AUCLast [1, 12]: 2530.16 ng·h/mL and 2885.80 ng·h/mL and 3762.18 ng·h/mL and 2185.63 ng·h/mL and 3291.36 ng·h/mL
CMax [1, 12]: 112 ng/mL and 143 ng/mL and 189 ng/mL and 114 ng/mL and 169 ng/mL
AUCInf [1, 13]: 9781.13 ng·h/mL and 7039.23 ng·h/mL and 10597.49 ng·h/mL
AUCLast [1, 13]: 9690.71 ng·h/mL and 6999.32 ng·h/mL and 10537.75 ng·h/mL
CMax [1, 13]: 480 ng/mL and 320 ng/mL and 512 ng/mL
AUCInf [1, 14]: 4399.83 ng·h/mL and 3862.84 ng·h/mL and 2807.47 ng·h/mL and 2572.27 ng·h/mL
AUCLast [1, 14]: 4345.10 ng·h/mL and 3799.02 ng·h/mL and 2767.78 ng·h/mL and 2505.93 ng·h/mL
CMax [1, 14]: 266 ng/mL and 247 ng/mL and 192 ng/mL and 160 ng/mL
AUCInf [1, 15]: 6254.18 ng·h/mL and 6207.11 ng·h/mL and 6316.80 ng·h/mL and 6043.68 ng·h/mL and 7134.20 ng·h/mL
AUCLast [1, 15]: 6191.76 ng·h/mL and 6095.21 ng·h/mL and 6245.16 ng·h/mL and 5955.75 ng·h/mL and 6968.01 ng·h/mL
CMax [1, 15]: 373 ng/mL and 352 ng/mL and 385 ng/mL and 414 ng/mL and 437 ng/mL
AUCInf [1, 16]: 11393.96 ng·h/mL and 13786.66 ng·h/mL and 10786.90 ng·h/mL and 8427.71 ng·h/mL and 10152.61 ng·h/mL
AUCLast [1, 16]: 11310.89 ng·h/mL and 13698.51 ng·h/mL and 10738.77 ng·h/mL and 8350.62 ng·h/mL and 10098.28 ng·h/mL
CMax [1, 16]: 660 ng/mL and 679 ng/mL and 644 ng/mL and 454 ng/mL and 502 ng/mL
time to average steady state plasma levels ([1]; variable (ramp) infusion, average rate 1-, 2-, and 3 mg/kg/24 hr): 14 to 24 h
